Three molecules from patent US8524705B2, “2-oxo-2-(2-phenyl-5,6,7,8-tetrahydro-indolizin-3-yl)-acetamide derivatives and related compounds as antifungal agents” (F2G Limited British Body Corporate, priority 2007, dated 2013) can be followed below.

For orientation: MIC means the lowest concentration that inhibits growth of the organism. A higher MIC goes with a less susceptible organism.

Type in all cases: cell-based
What all share (conditions): banded into grades

For one test, the system named is Aspergillus terreus AT4. Put plainly: Measurement of Minimum Inhibitory Concentrations (MICs), A. terreus. The essentials:
(§1)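 Broth microdilution in YAG medium with spores at 1–2×10^4 cfu/mL, drug range 50–0.05 mg/L (retested at 0.5–0.0005 mg/L where needed), 24 h at 35 °C. OD485 read; MIC is lowest concentration giving >70% growth inhibition versus drug-free control, in mg/L. Also assessed in RPMI with 2% glucose, 0.135M MOPS.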

A further test relates to Aspergillus terreus AT49. Put plainly: Measurement of Minimum Inhibitory Concentrations (MICs), A. terreus 49. The essentials: as §1
A further test has as its system Aspergillus niger. The test is described as follows: Measurement of Minimum Inhibitory Concentrations (MICs), A. niger. A digest of the protocol: as §1
The test system of another test is Aspergillus flavus. Put plainly: Measurement of Minimum Inhibitory Concentrations (MICs), A. flavus. A digest of the protocol:
as §1

Test [1] concerns Aspergillus fumigatus AF210. Put plainly: Measurement of Minimum Inhibitory Concentrations (MICs), A. fumigatus 210. The essentials: as §1
Test [2] has as its system Aspergillus fumigatus AF293. Put plainly: Measurement of Minimum Inhibitory Concentrations (MICs), A. fumigatus. The essentials: as §1
Where [3] appears, read: RPMI medium containing 2% glucose, 0.135M MOPS buffer.
Setting [4] is: YAG medium, 24 hrs at 35° C., >70% growth inhibition.

≈ marks a conversion by molar mass, not a printed value.

For the molecule `Cc1cc(C)nc(N(C)CCCN(C)c2ccc(NC(=O)C(=O)c3c(-c4ccccc4)cc4n3CCCC4)cc2)c1` [Example 19, N-[4-({3-[(4,6-Dimethyl-pyridin-2-yl)-methyl-amino]-propyl}-methyl-amino)-phenyl]-2-oxo-2-(2-phenyl-5,6,7,8-tetrahydro-indolizin-3-yl)-acetamide], the MIC against Aspergillus terreus AT4 (setting [3]), in the test on Aspergillus terreus AT4 (setting [4]), against Aspergillus terreus AT49 (setting [3]), in the test on Aspergillus terreus AT49 (setting [4]), in the test with Aspergillus niger (setting [3]) and in the test with Aspergillus niger (setting [4]) was < 1 µg/mL throughout. For the same molecule, the MIC (against Aspergillus flavus (setting [3]); in the test on Aspergillus flavus (setting [4]); in test [1] (setting [3]); in test [1] (setting [4]); in test [2] (setting [3]); in test [2] (setting [4])) was < 1 µg/mL throughout.

Regarding `Cc1cc(C)nc(N2CCN(c3ccc(NC(=O)C(=O)c4c(-c5ccccc5)cc5n4CCCC5)cc3COCCCN3CCOCC3)CC2)c1` [Example 26, N-[4-[4-(4,6-Dimethyl-pyridin-2-yl)-piperazin-1-yl]-3-(3-morpholin-4-yl-propoxymethyl)-phenyl]-2-oxo-2-(2-phenyl-5,6,7,8-tetrahydro-indolizin-3-yl)-acetamide], the MIC against Aspergillus terreus AT4 (setting [3]), against Aspergillus terreus AT4 (setting [4]), against Aspergillus terreus AT49 (setting [3]), in the test with Aspergillus terreus AT49 (setting [4]), against Aspergillus niger (setting [3]) and against Aspergillus niger (setting [4]) was > 10 µg/mL each time. In addition, the MIC against Aspergillus flavus (setting [3]) was > 10 µg/mL; in the test on Aspergillus flavus (setting [4]), 1 to 10 µg/mL (≈ 1.45 to 14.5 µM); in test [1] (setting [3]), > 10 µg/mL; in test [1] (setting [4]), > 10 µg/mL; in test [2] (setting [3]), > 10 µg/mL; in test [2] (setting [4]), > 10 µg/mL.

For the molecule `CCc1ccnc(N2CCN(c3ccc(NC(=O)C(=O)c4c(-c5ccccc5)cc5n4CCCC5)cc3)CC2)c1` [Example 17, N-{4-[4-(4-Ethyl-pyridin-2-yl)-piperazin-1-yl]-phenyl}-2-oxo-2-(2-phenyl-5,6,7,8-tetrahydro-indolizin-3-yl)-acetamide], the MIC against Aspergillus terreus AT4 (setting [3]), against Aspergillus terreus AT4 (setting [4]), against Aspergillus terreus AT49 (setting [3]), with Aspergillus terreus AT49 (setting [4]), with Aspergillus niger (setting [3]) and with Aspergillus niger (setting [4]) was < 1 µg/mL throughout. Moreover, the MIC (against Aspergillus flavus (setting [3]); with Aspergillus flavus (setting [4]); in test [1] (setting [3]); in test [1] (setting [4]); in test [2] (setting [3]); in test [2] (setting [4])) was < 1 µg/mL throughout.
